This note sets out measurements from patent US5002948A, “3-[4-[4-substituted-1-piperazinyl]-1-butyl]-1H-2,3-dihydroindoles” (H. Lundbeck A/S, priority 1988, dated 1991).

In assay [1] the target is T1, serotonin 5-HT1A receptors (Rattus norvegicus, UniProt P19327).
T1 construct: membranes from rat brain minus cerebellum; from tissue; host or cells: brain minus cerebellum of male Wistar (Mol:Wist) rats, membranes
T1 sequence (P19327 1-422): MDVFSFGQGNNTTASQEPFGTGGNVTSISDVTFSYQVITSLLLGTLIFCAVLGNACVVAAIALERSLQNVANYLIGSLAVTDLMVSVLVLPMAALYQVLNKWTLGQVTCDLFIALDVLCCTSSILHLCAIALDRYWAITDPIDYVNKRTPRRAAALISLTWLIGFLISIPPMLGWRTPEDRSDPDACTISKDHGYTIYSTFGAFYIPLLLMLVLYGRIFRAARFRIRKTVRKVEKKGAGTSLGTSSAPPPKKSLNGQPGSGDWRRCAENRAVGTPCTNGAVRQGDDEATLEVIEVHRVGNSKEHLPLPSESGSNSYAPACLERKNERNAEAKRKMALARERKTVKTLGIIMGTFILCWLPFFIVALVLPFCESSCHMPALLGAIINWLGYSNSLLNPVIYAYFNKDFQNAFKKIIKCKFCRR
The experiment in a line: Inhibition of 3H-8-OHDPAT binding to serotonin 5-HT1A receptors in rat brain in vitro. Particulars: 3H-8-OHDPAT 1 nM, rat brain membranes minus cerebellum, 37° C., 15 min; read-out: IC50 (3H 8-OH DPAT binding). On the procedure:
INHIBITION OF ^3 H-8-OHDPAT BINDING TO SEROTONIN 5-HT1A RECEPTORS IN A RAT BRAIN IN VITRO
By this method the inhibition by drugs of the binding of ^3 H-8-OHDPAT (1 nM) to serotonin 5-HT1A receptors in membranes from rat brain minus cerebellum is determined in vitro.
Male Wistar (Mol:Wist) rats (125-250 g) are sacrificed and the brain is dissected and weighed. The brain tissue minus cerebellum is homogenized (Ultra Turrax, 20 sec) in 10 ml of ice cold 50 mM Tris buffer pH 8.0 (at 25° C.) containing 120 mM NaCl, 4 mM CaCl2 and 4 mM MgCl2. The homogenate is centrifuged at 20,000 g for 10 min at 4° C. The pellet is homogenized in 10 ml of buffer and incubated at 37° C. for 10 min. The homogenate is centrifuged as above and the pellet is homogenized in 100 vol (w/v) ice cold buffer containing 10 μ M of parglyine.
Incubation tubes kept on ice in triplicate receive 100 μl of drug solution in water (or water for total binding) and 1000 μ l of tissue suspension (final tissue content corresponds to 10 mg original tissue). The binding experiment is initiated by addition of 100 μ l of ^3 H-8-OHDPAT (final concentration 1 nM) and by placing the tubes in a 37° C. water bath. After incubation for 15 min the samples are filtered under vacuum (0-50 mBar) through Whatman GF/F filters ([…]). The tubes are rinsed with 5 ml ice cold 0.9% NaCl which are then poured on the filters. Thereafter, the filters are washed with 2×5 ml 0.9% NaCl. The filters are placed in counting vials and 4 ml of appropriate scintillation fluid (e.g. Picofluor™15) are added. After shaking for 1 h and storage 2 h in the dark the content of radioactivity is determined by liquid scintillation counting. Specific binding is obtained by subtracting the nonspecific binding in the presence of 10 μ M of 5-HT.
For determination of the inhibition of binding five concentrations of drugs covering 3 decades are used.
The IC50 -value is determined as the concentration, at which the binding is 50% of the total binding in control samples minus the nonspecific binding in the presence of 10 μM of 5-HT.
^3 H-8-OHDPAT from Amersham International plc. England. Specific activity approximately 200 Ci/mmol).

The next assay deals with T2, 5-HT1A (Rattus norvegicus, UniProt P19327).
T2 sequence (P19327 1-422): T1 sequence (P19327 1-422)
The experiment in a line: Inhibition of 5-methoxy-N,N-dimethyltryptamine (5-MeODMT) induced 5-HT syndrome in rats. As to conditions: 30 min before 5-MeODMT 5 mg/kg s.c., per cent inhibition of piano playing syndrome; for ED50: rat, sc. The format is in vivo, Male Wistar rats. Also on record: Male Wistar rats (Mol:Wist) weighing 170-240 g are used; from tissue; host or cells: whole living animal, male Wistar rats (Mol:Wist), s.c. dosing. The text has this:
INHIBITION OF 5-METHOXY-N,N-[…] INDUCED 5-HT SYNDROME IN RATS
The so-called 5-HT syndrome is a characteristic behaviour pattern which is induced by 5-HT agonists with effects on 5-HT, possibly 5-HT1A receptors, although lack of specific antagonists make it difficult to evaluate specificity (Smith, L. M. and S. J. Peroutka, Pharmacol. Biochem. & Behaviour 24, 1513-1519, 1986; Tricklebank, M. et al., Eur. J. Pharmacol. 117, 15-24, 1985).
Male Wistar rats (Mol:Wist) weighing 170-240 g are used. Test substrate is injected subcutaneously 30 min. before 5-methoxy-N,N-dimethyltryptamine 5 mg/kg, s.c. Four rats are used for each dose. A control group pretreated with saline is included each test day. Ten, 15 and 20 min later the rats are observed for presence of serotonin (5-HT) syndrome: (1) forepaw treading ("piano playing"), (2) head weaving and (3) hindleg abduction. Further, flat motility is scored. Each part of the syndrome is scored as follows: marked effect (score 2), weak syndrome (score 1) and no effect (score 0). The scores of the three observation times are added. Thus the maximum obtainable score for four rats is 24. The effect of the test substance is expressed as per cent inhibition relative to the control group.
The per cent inhibition of the piano playing syndrome is used as the response, and ED50 values are calculated by log-prohibit analysis.

Regarding `COc1ccccc1N1CCN(CCCCC2CNc3ccccc32)CC1` (single isomer, unassigned; (+)) [Compound 7a, (+)-3-[4-[4-(2-methoxyphenyl)-1-piperazinyl]-1-butyl]-1H-2,3-dihydroindole], the IC50 in assay [1] was 13 nM. In addition, the ED50 at 5-HT1A was found to be 2.1 µmol/kg.
Turning to `COc1ccccc1N1CCN(CCCCC2CNc3ccccc32)CC1` (single isomer, unassigned; (-)) [Compound 7b, (-)-3-[4-[4-(2-methoxyphenyl)-1-piperazinyl]-1-butyl]-1H-2,3-dihydroindole], in assay [1], the IC50 was 8.6 nM. Also, on 5-HT1A (s.c.), the “ED50, inhibition of 5-MeODMT induced 5-HT syndrome” value is 1.3 µmol/kg.
Take `COc1ccccc1N1CCN(CCCCC2CNc3ccccc32)CC1` (stereo not drawn) [Compound 3a, 3-[4-[4-(2-methoxyphenyl)-1-piperazinyl]-1-butyl]-1H-2,3-dihydroindole]: in assay [1], the IC50 stood at 14 nM. Also, the 50% effect level on 5-HT1A (ED50) was put at a dose of 1.9 µmol/kg.
For `CCOc1ccccc1N1CCN(CCCCC2CNc3ccccc32)CC1` (stereo not drawn) [Compound 3c, 3-[4-[4-(2-ethoxyphenyl)-1-piperazinyl]-1-butyl]-1H-2,3-dihydroindole], in that order: 11 nM and 0.48 µmol/kg.
For `c1ccc2c(c1)NCC2CCCCN1CCN(c2cccc3c2OCC3)CC1` (stereo not drawn) [Compound 3i, 3-[4-[4-(2,3-dihydro-7-benzofuranyl)-1-piperazinyl]-1-butyl]-1H-2,3-dihydroindole], the IC50 in assay [1] is 9.4 nM. The molecule further yielded an ED50 at 5-HT1A of 4 µmol/kg.
For `c1ccc2c(c1)NCC2CCCCN1CCN(c2cccc3c2OCCO3)CC1` (stereo not drawn) [Compound 3j, 3-[4-[4-(1,4-benzodioxan-5-yl)-1-piperazinyl]-1-butyl]-1H-2,3-dihydroindole], in that order: 3.3 nM and 3.1 µmol/kg.

Usually IC50 stands for the concentration at which inhibition is half-maximal. Broadly, the ED50 is the midpoint of the dose-response relation. Read a low ED50 as an effect at a small dose.
